According to patent US8389011B2, “Pharmaceutical compositions of cholesteryl ester transfer protein inhibitors” (Bend Research, Inc., priority 2000, dated 2013):

Experiment: In vitro dissolution test, microcentrifuge method, in phosphate buffered saline (PBS) pH 6.5
Type: physicochemical
Conditions: for AUC / Drug 2 Concentration: Table 5, PBS pH 6.5, 37° C.; for AUC: dose about 1000 μg/mL; for Drug 2 Concentration: Drug 2 dose about 1000 μg/mL
[1] = Table 25: Drug 2, PBS, melt-congeal poloxamer dispersions
[2] = Table 28: Drug 2, PBS, spray-dried poloxamer dispersions
[3] = Table 37: Drug 2, PBS, CMEC dispersions

Which results are given for `CCOC(=O)N1c2ccc(C(F)(F)F)cc2[C@@H](N(Cc2cc(C(F)(F)F)cc(C(F)(F)F)c2)C(=O)OC)C[C@H]1CC` [Control 2, [2R,4S]4-[(3,5-bis-trifluoromethyl-benzyl)-methoxycarbonyl-amino]-2-ethyl-6-trifluoromethyl-3,4-dihydro-2H-quinoline-1-carboxylic acid ethyl ester]?
actual Cmax,90 for Drug 2 in Control 2 (believed) (PBS, inferred from the accurately measured solubility of crystalline Drug 2): about 0.01 μg/ml; AUC (Drug 2, to 0 min): 0 min-μg/mL; AUC (Drug 2, to 4 min): <2 min-μg/mL; AUC (Drug 2, to 10 min): <8 min-μg/mL; AUC (Drug 2, to 20 min): <18 min-μg/mL; AUC (Drug 2, to 40 min): <38 min-μg/mL; AUC (Drug 2, to 90 min): <88 min-μg/mL; AUC (Drug 2, to 1200 min): <1,200 min-μg/mL; Drug 2 Concentration (0 min): 0 µg/mL; Drug 2 Concentration (4 min): <1 µg/mL; Drug 2 Concentration (10 min): <1 µg/mL; Drug 2 Concentration (20 min): <1 µg/mL; Drug 2 Concentration (40 min): <1 µg/mL; Drug 2 Concentration (90 min): <1 µg/mL; Drug 2 Concentration (1200 min): <1 µg/mL; AUC90 (Table 6, area under the aqueous concentration versus time curve after 90 minutes, Drug 2, PBS, TCmax about 1000 μg/mL): <88 min-μg/mL; C1200 (Table 6, concentration of Drug 2 at 1200 minutes, PBS, TCmax about 1000 μg/mL): <1 µg/mL; Cmax, 90 (Table 6, maximum concentration of Drug 2 in solution during the first 90 minutes, PBS, TCmax about 1000 μg/mL): <1000 ng/mL; AUC90 [1]: < 1470 ng·h/mL; Cmax, 90 [1]: <1000 ng/mL; AUC90 [2]: <88 min-μg/mL; Cmax, 90 [2]: <1000 ng/mL; AUC90 [3]: <88 min-μg/mL; Cmax, 90 [3]: <1000 ng/mL; AUC90 (Table 41: Drug 2, PBS): <88 min-μg/mL; Cmax, 90 (Table 41: Drug 2, PBS): <1000 ng/mL; AUC90 (Table 44: Drug 2, PBS): <88 min-μg/mL; Cmax, 90 (Table 44: Drug 2, PBS): <1000 ng/mL
